Measured values taken from patent US12589111B2, “Pt(IV) chemotherapeutic prodrug and controlled release thereof for treatment of tumors” (PEKING UNIVERSITY, priority 2020, dated 2026).

Test system: not listed separately
Experiment: Determination of release efficiency by UPLC-MS after X-ray irradiation
Format: physicochemical
Settings: 10 μM in pure water, deoxygenated, 60 Gy X-ray (4 Gy/min, 15 min); released divalent platinum drug by UPLC-MS
Description: 2.7 Determination of Release Efficiency by UPLC-MS
Corresponding tetravalent platinum complexes (compounds 1-66) were dissolved in DMSO to obtain tetravalent platinum stock solutions (10 mM), and then diluted to 10 μM with pure water. After deoxygenation, the solution was subjected to 60 Gy X-ray irradiation (4 Gy/min, 15 min). The reaction crude product was analyzed by UPLC-MS, and the released product was determined to be the corresponding divalent platinum drug by UPLC-MS. The concentration of the divalent platinum drug was determined by the external standard curve of the platinum drug, and the release efficiency was calculated.

Row | SMILES | Release efficiency [%]
1 | CC(=O)[O][Pt]([NH2])([NH2])([Cl])([Cl])[O]C(C)=O [Compound 1] | 83.2
2 | CC(=O)[O][Pt]([NH2])([NH2])([Cl])([Cl])[O]C(=O)CCCc1ccc(I)cc1 [Compound 2] | 85.7
3 | CC(=O)[O][Pt]([NH2])([NH2])([Cl])([Cl])[O]C(=O)CCCCCN1C(=O)C=CC1=O [Compound 3] | 80.3
4 | CCCCCCCCCCCCCCCCNC(=O)[O][Pt]([NH2])([NH2])([Cl])([Cl])[O]C(C)=O [Compound 4] | 79.5
5 | CCCCCCCCCCCCCCCCCCNC(=O)[O][Pt]([NH2])([NH2])([Cl])([Cl])[O]C(C)=O [Compound 5] | 73.9
6 | CC(=O)[O][Pt]([NH2])([NH2])([Cl])([Cl])[O]C(=O)CCC(=O)O [Compound 8] | 75.5
7 | [NH2][Pt]([NH2])([Cl])([Cl])([O]C(=O)CCC(=O)O)[O]C(=O)CCC(=O)O [Compound 9] | 75.6
8 | [NH2][Pt]([NH2])([Cl])([Cl])([O]C(=O)CCCc1ccc(I)cc1)[O]C(=O)CCC(=O)O [Compound 10] | 76.7
9 | [NH2][Pt]([NH2])([Cl])([Cl])([O]C(=O)CCCCCN1C(=O)C=CC1=O)[O]C(=O)CCC(=O)O [Compound 11] | 73.9
10 | CCCCCCCCCCCCCCCCNC(=O)[O][Pt]([NH2])([NH2])([Cl])([Cl])[O]C(=O)CCC(=O)O [Compound 12] | 77.4
11 | CCCCCCCCCCCCCCCCCCNC(=O)[O][Pt]([NH2])([NH2])([Cl])([Cl])[O]C(=O)CCC(=O)O [Compound 13] | 82.7
12 | CC(=O)[O][Pt]([NH2])([NH2])([Cl])([Cl])[O]C(=O)CN(C)C [Compound 16] | 71.9
13 | CN(C)CC(=O)[O][Pt]([NH2])([NH2])([Cl])([Cl])[O]C(=O)CCCc1ccc(I)cc1 [Compound 17] | 79.6
14 | CN(C)CC(=O)[O][Pt]([NH2])([NH2])([Cl])([Cl])[O]C(=O)CCCCCN1C(=O)C=CC1=O [Compound 18] | 73.5
15 | CCCCCCCCCCCCCCCCNC(=O)[O][Pt]([NH2])([NH2])([Cl])([Cl])[O]C(=O)CN(C)C [Compound 19] | 78.5
16 | CCCCCCCCCCCCCCCCCCNC(=O)[O][Pt]([NH2])([NH2])([Cl])([Cl])[O]C(=O)CN(C)C [Compound 20] | 83.7
17 | CCCCCCCCCCCCCCCCNC(=O)[O][Pt]1([NH2])([NH2])([O]C(C)=O)[O]C(=O)C2(CCC2)C(=O)[O]1 [Compound 26] | 69.4
18 | N.N.O=C(O)CCC(=O)[O][Pt]1([O]C(=O)CCC(=O)O)[O]C(=O)C2(CCC2)C(=O)[O]1 [Compound 31] | 65.9
19 | N.N.O=C(O)CCC(=O)[O][Pt]1([O]C(=O)CCCc2ccc(I)cc2)[O]C(=O)C2(CCC2)C(=O)[O]1 [Compound 32] | 64.6

Row | SMILES | Release efficiency [%]
20 | N.N.O=C(O)CCC(=O)[O][Pt]1([O]C(=O)CCCCCN2C(=O)C=CC2=O)[O]C(=O)C2(CCC2)C(=O)[O]1 [Compound 33] | 67.7
21 | CCCCCCCCCCCCCCCCCCNC(=O)[O][Pt]1([O]C(=O)CCC(=O)O)[O]C(=O)C2(CCC2)C(=O)[O]1.N.N [Compound 35] | 73.5
22 | CN(C)CC(=O)[O][Pt]1([O]C(=O)CCCc2ccc(I)cc2)[O]C(=O)C2(CCC2)C(=O)[O]1.N.N [Compound 39] | 71.0
23 | CN(C)CC(=O)[O][Pt]1([O]C(=O)CCCCCN2C(=O)C=CC2=O)[O]C(=O)C2(CCC2)C(=O)[O]1.N.N [Compound 40] | 68.9
24 | CCCCCCCCCCCCCCCCCCNC(=O)[O][Pt]1([O]C(=O)CN(C)C)[O]C(=O)C2(CCC2)C(=O)[O]1.N.N [Compound 42] | 66.3
25 | N[C@@H]1CCCC[C@H]1N.O=C(O)CCC(=O)[O][Pt]1([O]C(=O)CCC(=O)O)[O]C(=O)C(=O)[O]1 [Compound 53] | 76.7
26 | N[C@@H]1CCCC[C@H]1N.O=C(O)CCC(=O)[O][Pt]1([O]C(=O)CCCc2ccc(I)cc2)[O]C(=O)C(=O)[O]1 [Compound 54] | 75.3
27 | N[C@@H]1CCCC[C@H]1N.O=C(O)CCC(=O)[O][Pt]1([O]C(=O)CCCCCN2C(=O)C=CC2=O)[O]C(=O)C(=O)[O]1 [Compound 55] | 81.9
28 | CCCCCCCCCCCCCCCCNC(=O)[O][Pt]1([O]C(=O)CCC(=O)O)[O]C(=O)C(=O)[O]1.N[C@@H]1CCCC[C@H]1N [Compound 56] | 80.2
29 | CCCCCCCCCCCCCCCCCCNC(=O)[O][Pt]1([O]C(=O)CCC(=O)O)[O]C(=O)C(=O)[O]1.N[C@@H]1CCCC[C@H]1N [Compound 57] | 76.3
30 | CCCCCCCCCCCCCCCC(=O)[O][Pt]1([O]C(=O)CCC(=O)O)[O]C(=O)C(=O)[O]1.N[C@@H]1CCCC[C@H]1N [Compound 58] | 81.3
31 | CCCCCCCCCCCCCCCCCC(=O)[O][Pt]1([O]C(=O)CCC(=O)O)[O]C(=O)C(=O)[O]1.N[C@@H]1CCCC[C@H]1N [Compound 59] | 82.0
32 | CC(=O)[O][Pt]1([O]C(=O)CN(C)C)[O]C(=O)C(=O)[O]1.N[C@@H]1CCCC[C@H]1N [Compound 60] | 81.3
33 | CN(C)CC(=O)[O][Pt]1([O]C(=O)CCCc2ccc(I)cc2)[O]C(=O)C(=O)[O]1.N[C@@H]1CCCC[C@H]1N [Compound 61] | 73.7
34 | CN(C)CC(=O)[O][Pt]1([O]C(=O)CCCCCN2C(=O)C=CC2=O)[O]C(=O)C(=O)[O]1.N[C@@H]1CCCC[C@H]1N [Compound 62] | 74.5
35 | CCCCCCCCCCCCCCCCNC(=O)[O][Pt]1([O]C(=O)CN(C)C)[O]C(=O)C(=O)[O]1.N[C@@H]1CCCC[C@H]1N [Compound 63] | 75.7
36 | CCCCCCCCCCCCCCCCCCNC(=O)[O][Pt]1([O]C(=O)CN(C)C)[O]C(=O)C(=O)[O]1.N[C@@H]1CCCC[C@H]1N [Compound 64] | 82.2
37 | CCCCCCCCCCCCCCCC(=O)[O][Pt]1([O]C(=O)CN(C)C)[O]C(=O)C(=O)[O]1.N[C@@H]1CCCC[C@H]1N [Compound 65] | 74.6
38 | CCCCCCCCCCCCCCCCCC(=O)[O][Pt]1([O]C(=O)CN(C)C)[O]C(=O)C(=O)[O]1.N[C@@H]1CCCC[C@H]1N [Compound 66] | 77.5

Test system: HCT116, HT29, LoVo and Ls513 (human colorectal cancer cell lines)
Experiment: Cytotoxicity to Oxaliplatin-sensitive cell lines
Format: cell-based
Settings: not given

Row | SMILES | IC50
39 | O=C1[O][Pt]2([NH][C@@H]3CCCC[C@H]3[NH]2)[O]C1=O [Oxaliplatin] | about submicromolar level

Test system: healthy mice
Experiment: not given
Settings: 3 μmol/kg
Description: In order to find the optimal dosage, we evaluated the effect of different doses of Oxaliplatin and prodrug on the health of healthy mice. In the same dosing way as in the treatment, the mice were dosed every third day, and then the body weight curve was recorded. […] Then ICP-MS was used to detect the concentration of the platinum drug in blood, tumor, liver and kidney respectively.
FIGS. 5 e-h show radiotherapy-driven release of Oxaliplatin for tumor treatment (n=6 mice per group). e, Tumor volume in individual mouse. f, Mean volume of tumors. The prodrug was injected intravenously for a total of 4 injections at a dose of 30 μmol/kg. One hour after intravenous injection, the tumor site in the irradiation group was irradiated with 4 Gy X-rays. Tumor volume in each group was measured every two days for 40 days. g, Survival curves of mice. According to the guidelines of Peking University Animal Ethics Committee, mice were sacrificed when the tumor volume reached 1500 mm^3. h, Body weight curves of mice.

Row | SMILES | side effects from long-term survival and body weight curves
40 | O=C1[O][Pt]2([NH][C@@H]3CCCC[C@H]3[NH]2)[O]C1=O [Oxaliplatin] | no apparent side effects

Same assay, conditions: 3 μmol/kg, dosed every third day

Row | SMILES | body weight of mice
41 | O=C1[O][Pt]2([NH][C@@H]3CCCC[C@H]3[NH]2)[O]C1=O [Oxaliplatin] | did not reduce the body weight

Same assay, conditions: 30 μmol/kg, dosed every third day

Row | SMILES | body weight of mice
42 | O=C1[O][Pt]2([NH][C@@H]3CCCC[C@H]3[NH]2)[O]C1=O [Oxaliplatin] | lost severe weight

Same assay, conditions: more than 10 μmol/kg

Row | SMILES | side effects (weight loss)
43 | O=C1[O][Pt]2([NH][C@@H]3CCCC[C@H]3[NH]2)[O]C1=O [Oxaliplatin] | significant side effects

Same assay, conditions: nude mice, intravenous injection

Row | SMILES | maximum tolerated dose
44 | O=C1[O][Pt]2([NH][C@@H]3CCCC[C@H]3[NH]2)[O]C1=O [Oxaliplatin] | about 3 μmol/kg

Test system: not listed separately
Experiment: Release of the corresponding platinum drug of Pt(IV)-(Suc)2 after γ-ray irradiation
Format: physicochemical
Settings: deoxygenated, 60Co γ-rays; UPLC-MS, 195Pt NMR
Description: 2.6 Detection of the Release of the Corresponding Platinum Drug of Pt(IV)-(Suc)2
Pt(IV)-(Suc)2 was dissolved in 1 mL of deuterium water ([…]), and the mixture was adjusted to a pH of 7 with NaOH. After deoxygenation, the solution was exposed to 40 kGy γ-ray irradiation (^60Co source, 200 Gy/min, 200 min).
Determination of product by UPLC-MS (FIG. 3, b c)
After deoxygenation, the solution was exposed to 1 kGy γ-ray irradiation (^60Co source, 100 Gy/min, 10 min).

Row | SMILES | product released by γ-ray irradiation
45 | [NH2][Pt]1([NH2])([O]C(=O)CCC(=O)O)([O]C(=O)CCC(=O)O)[O]C(=O)C2(CCC2)C(=O)[O]1 [carboPt(IV)-(Suc)2] | release the corresponding Pt(II) drugs
46 | N.N.O=C(O)CCC(=O)[O][Pt]([Cl])([Cl])[O]C(=O)CCC(=O)O [cisPt(IV)-(Suc)2] | release the corresponding Pt(II) drugs
47 | NC1CCCCC1N.O=C(O)CCC(=O)[O][Pt]1([O]C(=O)CCC(=O)O)[O]C(=O)C(=O)[O]1 [oxaliPt(IV)-(Suc)2] | released product was oxaliplatin

Test system: not listed separately
Experiment: Ligand release of Pt(IV) complex 1 in different solutions after X-ray irradiation
Format: physicochemical
Settings: 100 μM in complete fetal bovine serum (FBS)
Description: 2.5 Detection of Ligand Release of Pt(IV) Complex 1 in Different Solutions
A 10 mM stock solution of Pt(IV) complex 1 was prepared, and diluted to 100 μM in H2O. PBS, 5 mM Tyr, Trp, DMEM and CM (complete medium), FBS solution. After X-ray irradiation, 200 μL of ACN was added to each solution. The mixture was centrifuged, and the supernatant was then collected. The operation was repeated 2 more times, and the final concentration was ⅛ of the original concentration. Ligand release was detected by UPLC-MS and quantified by a standard curve of coumarin.

Row | SMILES | reaction yield of ligand release
48 | CC(=O)[O][Pt]([Cl])([Cl])[O]C(C)=O.N.N [Pt(IV) complex 1] | not much different from that in water

Same assay, conditions: 100 μM; PBS, 5 mM Tyr, 5 mM Trp, DMEM, CM; X-ray, UPLC-MS

Row | SMILES | release of axial ligands
49 | CC(=O)[O][Pt]([Cl])([Cl])[O]C(C)=O.N.N [Pt(IV) complex 1] | achieved in all of the above solutions
